Where a name gives a salt, the structure may show the parent alone.
Tests used:
[1] = Solubility in water; type: physicochemical
[2] = Stability in human serum at 37° C. (RP-HPLC); type: in vitro ADME; conditions: for half-life at 200 μM: read-out: Stability in human serum t1/2
Procedure: (§1) The stability of the compound MC526 was studied through reverse phase chromatography in an aqueous medium at pH=1 and in the human serum at 37° C.
In order to assay the stability of the compound of Example 1 in human serum, a 10 mM solution of the compound in DMSO was added to human serum (obtained from human AB plasma, Sigma) preheated to 37° C. The final concentration of the compound was 200 μM. The resulting solution was incubated at 37±0.5° C. and 300 μL aliquots of the reaction mixture were collected and added to an equal amount of acetonitrile containing trifluoroacetic acid 0.1% at suitable time intervals for deproteinising the serum. The sample was sonicated, vortexed and then centrifuged for 10 minutes at 2150 g. The white supernatant was filtered using PTFE 0.45μm (Alltech) filters and analysed through RP-HPLC.
(§2) The analysis in RP-HPLC allows separating and quantifying the initial compounds and those deriving from hydrolysis. Analysis was carried out using a HP1100 (Agilent Technologies, Palo Alto, Calif., USA) chromatography system equipped with a quaternary pump (model G1311A), a degassing membrane (G1379A), a diode-array detector (DAD) (model G1315B) integrated in the HP1100 system. A HP ChemStation (Agilent Technologies) system was used for analyzing data. The analytic column was Nucleosil 100-5 C18 Nautilus (250×4, 6 mm, size of the particles 5 μm) (Macherey-Nagel). The mobile phase used was constituted by acetonitrile/water (55/45) with 0.1% trifluoroacetic acid and the flow rate is of 1.2 ml/min. The injection volume was 20 μl (Rheodyne, Cotati, Calif.). The effluent from column was monitored at 226 nm (for the compound MC526 and for CAS 1609) and at 240 nm (for salicylic acid and the salicylate AT38) against a reference at 600 nm. The quantification of the initial products and those deriving from hydrolysis was carried out by means of calibration curves obtained using standards studied in the same conditions (for concentrations comprised between 5 and 200 μM).

[3] = Stability in aqueous medium at pH=1 (0.1 M HCl, 37° C., RP-HPLC); type: physicochemical; conditions: compound unaltered after 1 hour of incubation, 100 μM
Procedure: as §1
In particular, a 10 mM solution of the compound of Example 1 in DMSO was added to a 0.1 M solution of HCl preheated to 37° C. The final concentration of the compound was 100 μM. The resulting solution was maintained at 37±0.5° C. and 20 μl aliquots of the reaction solution were analysed by means of RP-HPLC at suitable time intervals.
as §2

[4] = test system: splenocytes of the BALB/C from the control animal group and from the animals carrying colon carcinoma26 (C26GM); experiment: Proliferation assay (3H-TdR) of anti-CD3/anti-CD28 stimulated splenocytes; type: cell-based, mice; conditions: FIG. 7
Procedure: The mice BALB/c were inoculated s.c. in the inguinal cavity with 0.5*10^6 cells C26GM. The mice were sacrificed after 9 days and the splenocytes were used for in vitro assays.
The splenocytes of the BALB/C from the control animal group and from the animals carrying colon carcinoma26 (C26GM) are plated to the concentration of 6*10^5 cells per well and stimulated with 3 μg/ml anti-CD3 (2C11, ATCC) and 2 μg/ml of anti-CD28 (clone 37.5, ATCC) both with and without scalar dilutions of the compounds subject of the invention. After 3 days of incubation, 1 μCi/well (1 Cl=37 GBq) of ^3H-TdR (PerkinElmer) is added to the culture for 18 hours and the addition thereof is monitored by scintillation.
In particular, the controls (Unst) refer to cells not stimulated with antiCD3 and antiCD28 and the control (St) on stimulated cells but drug-free. It can be observed that the doses corresponding to 200 μM and 100 μM are toxic for the cells, in that the proliferation is not observed even on healthy splenocytes.

solubility [1]	Stability in buffer at pH = 1 after 1 hour [3]	half-life at 200 μM [2]	SMILES	Hydrolysis of the salicylate derivative in human serum ([2]; release of CAS 1609 and salicylic acid)	Proliferation assay result ([4]; 12.5 μM)	Proliferation assay result ([4]; 25 μM)	Proliferation assay result on healthy cells ([4]; 50 μM, healthy cells)	Proliferation assay result ([4]; 100 μM, healthy splenocytes)	Proliferation assay result ([4]; 200 μM, healthy splenocytes)
< 1 µg/mL			NC(=O)c1c(COC(=O)c2ccccc2O)no[n+]1[O-] [AT38, [3-(aminocarbonyl)furoxan-4-yl]methyl salicylate, reference compound]	slowly releases the CAS 1609 compound and salicylic acid					
10000 µg/mL	60%	1.4 min	NCCC(=O)Oc1ccccc1C(=O)OCc1no[n+]([O-])c1C(N)=O [MC526, ([3-(aminocarbonyl)furoxan-4-yl]methyl-2-(β-alanyloxy)benzoate)hydrochloride]		efficient and non-toxic	efficient and non-toxic	partly toxic	toxic	toxic
2500 µg/mL	90%	1.6 min	NCCCC(=O)Oc1ccccc1C(=O)OCc1no[n+]([O-])c1C(N)=O [MC596, ([3-(aminocarbonyl)furoxan-4-yl]methyl-2-(4-aminobutanoyloxy)benzoate hydrochloride)]						
10000 µg/mL	80%	1.3 min	CC(N)C(=O)Oc1ccccc1C(=O)OCc1no[n+]([O-])c1C(N)=O (stereo not shown) [MC598, ([3-(aminocarbonyl)furoxan-4-yl]methyl-2-(alanyloxy)benzoate hydrochloride)]						
